Series [1] relates to HZ24-2B2 cells expressing rHuPH20. Nature of the series: Treatment of rHuPH20-expressing cells with glycosylation inhibitors. As to conditions: for Effect on PH20 activity (in words): tissue culture media and inside the cell. Type of series: cell-based, Chinese Hamster. As to the method:
Briefly, 1×10^6 HZ24-2B2 cells expressing rHuPH20 (see Example 14 below) were seeded in 24 mL complete CD-CHO medium in two 125 mL flasks. Tunicamycin (dissolved in DMSO) or Kifunensine (freshly dissolved in water) was added to a final concentration of 5 μg/mL (containing 12 μL DMSO). As a control, one flask was seeded with 1×10^6 HZ24-2B2 cells expressing rHuPH20 and 12 μL DMSO was added as a vehicle control. Following addition of either tunicamycin or kifunensine, the cells were incubated for 4-6 hours at 37° C. with 5% CO2. Following expression, a 2 mL culture was removed and centrifuged for 5 minutes at 500 g. The supernatant was stored at 4° C. and the cell pellets were stored at −20° C. The remaining 22 mL cultures were centrifuged for 5 minutes at 500 g. The supernatant was stored at 4° C. The cells were resuspended in 22 mL complete CD-CHO medium in the original two 125 mL flasks. Tunicamycin or Kifunensine was added to the culture at a final concentration of 5 μg/mL and the cells were incubated at 37° C. with 5% CO2. Two mL (2 mL) cultures were removed from each flask at approximately every 24 hours post changing medium. For each time point, the supernatant was stored at 4° C. and the cell pellets were stored at −20° C. The expression of rHuPH20 was analyzed by Western blot analysis and the hyaluronidase activity was measured using the biotinylated HA enzymatic assay (as described in Examples 3 and 5 above).

Series [2] in a line: Microtiter hyaluronidase activity assay with biotinylated-hyaluronic acid. It is filed as biochemical. As to conditions: Table 6, 72 hour post transfection supernatant. As to the method:
In Example 4, the hyaluronidase activity of truncated human PH20 hyaluronidase is determined using biotinylated hyaluronic acid. The free carboxyl groups on the glucuronic acid residues of hyaluronic acid are biotinylated, and the biotinylated hyaluronic acid substrate is covalently coupled to a microtiter plate. Following incubation with hyaluronidase, the residual biotinylated hyaluronic acid substrate is detected using an avidin-peroxidase reaction, and compared to that obtained following reaction with hyaluronidase standards of known activity. […] The sensitivity permits rapid measurement of hyaluronidase activity from cultured cells and biological samples with an inter-assay variation of less than 10%.
In this example, the human PH20 hyaluronidase carboxy-terminus deletion mutants were tested for their PH20 hyaluronidase activity using a microtiter assay with biotinylated-hyaluronic acid (biotinylated-HA or bHA). The human PH20 hyaluronidase carboxy-terminus deletion mutants were tested for hyaluronidase activity at both pH 7.4 and pH 5.5.
In short, a 4×BH 96-well plate was coated with biotinylated-HA (1.1 MDa). The 72 hour post transfection supernatant from cells transfected with human PH20 hyaluronidase carboxy-terminus deletion mutants was diluted in buffer at either pH 7.4 or pH 5.5 and added to individual wells of the plate and allowed to incubate at 37° C. for 90 minutes. The reaction was terminated by addition of 4M guanidine HCl. The wells were washed 4× with Phosphate Buffered Saline with Tween20 (PBST) to remove any digested biotinylated-HA followed by addition of streptavidin-HRP for 1 hour at room temperature. The wells were washed 4× with PBST and the plate was developed with TMB. The plate was read at 450 nm using an ELISA plate reader. Hyaluronidase activity (in Units/mL) was determined by interpolating the measured absorbance at 450 nm with a hyaluronidase reference standard curve. Full length mature human PH20 hyaluronidase and untransfected CHO cells were used as positive and negative controls.

The next series has as its system CHO-S cells. As to the kind of experiment: Western blot analysis of PH20 expression in media and cells after transient expression. Type of series: cell-based, Chinese Hamster. As to conditions: media versus cells. As for the experimental part:
The mutant PH20-HZ24 plasmids generated in Example 1 were transiently […] into CHO—S cells (derived from Chinese Hamster Ovary CHO K1 cells) using GeneJuice® (Novagen) according to the manufacturer's instructions. In short, the CHO—S cells were grown in CD CHO medium supplemented with L-glutamine. Prior to transfection, the CHO—S cells were plated in 6-well plates, with approximately 5×10^5 cells per well, and grown overnight at 37° C. with 5% CO2. The medium was then removed and the CHO—S cells were washed 2 times with 1 mL serum-free medium. GeneJuice® was mixed with serum-free media followed by the addition of 2 μg mutant-HZ24 DNA. After incubating at room temperature for 5-15 minutes, the GeneJuice®/DNA mixture was added dropwise to an individual well containing the washed CHO—S cells. After 4 hours, the medium was replaced with 1 mL CD-CHO medium supplemented with L-glutamine and the cells were incubated for 72 hours at 37° C. with 5% CO2. Following expression, the media and cells were harvested separately.
The mutant PH20-HZ24 plasmids generated in Example 1 were transiently […] into CHO—S cells using GeneJuice® (Novagen) according to the manufacturer's instructions. […]
In this example, following transient expression, as described in Example 2 above, the media and cells were harvested separately and analyzed for PH20 expression and solublility by Western blot analysis. Solubility of the C-terminus truncation mutants was determined by examining whether the expressed protein was present in the growth media or in the cells. […] Cells expressing these mutants were treated with phosphoinositol-phospholipase C (PI-PLC), which cleaves the GPI-anchor allowing the release of soluble protein into the media, and the presence of PH20 in the resulting media and cells was determined by Western blot analysis.
Non-reduced samples were run on a 4-20% Tris-Glycine gel and transferred to PVDF membrane using iBlot (Invitrogen). For the Western blot, rabbit anti-PH20 IgG (0.5 μg/mL) was used as the primary antibody and HRP-conjugated goat anti-rabbit IgG (0.1 ng/mL, Cat#DC03L, EMD) was used as the secondary antibody. Evidence of expression is determined by a band at approximately 66 kDa, corresponding to recombinant human PH20 hyaluronidase.

Take Tunicamycin: in series [1] (5 μg/mL), the “Effect on cell viability (in words)” value is reported as “complete loss of cell viability”. The PH20 activity is given as 34.50 U/mL in series [1] (Cell Pellets, With Tunicamycin, 0 hours); 38.00 U/mL in series [1] (Cell Pellets, With Tunicamycin, 1 hours); 34.00 U/mL in series [1] (Cell Pellets, With Tunicamycin, 2 hours); 18.00 U/mL in series [1] (Cell Pellets, With Tunicamycin, 4 hours); 1.00 U/mL in series [1] (Cell Pellets, With Tunicamycin, 25 hours); 0.80 U/mL in series [1] (Cell Pellets, With Tunicamycin, 49 hours). Moreover, the PH20 activity in series [1] (Cell Pellets, With Tunicamycin, 73 hours) is reported as 0.30 U/mL; in series [1] (Cell Pellets, With Tunicamycin, 91 hours), 0.30 U/mL; in series [1] (Tissue Culture Media, With Tunicamycin, 0 hours), 0.50 U/mL; in series [1] (Tissue Culture Media, With Tunicamycin, 1 hours) it was 2.80 U/mL; in series [1] (Tissue Culture Media, With Tunicamycin, 2 hours), 5.00 U/mL; in series [1] (Tissue Culture Media, With Tunicamycin, 4 hours), 8.80 U/mL. Further, the PH20 activity worked out at 5.80 U/mL in series [1] (Tissue Culture Media, With Tunicamycin, 25 hours); 6.80 U/mL in series [1] (Tissue Culture Media, With Tunicamycin, 49 hours); 7.80 U/mL in series [1] (Tissue Culture Media, With Tunicamycin, 73 hours); 7.50 U/mL in series [1] (Tissue Culture Media, With Tunicamycin, 91 hours). In addition, the “Viable Cells” value is 1.04 ×10^6 in series [1] (With Tunicamycin 5 μg/mL, 0 hours); 1.04 ×10^6 in series [1] (With Tunicamycin 5 μg/mL, 1 hours); 1.04 ×10^6 in series [1] (With Tunicamycin 5 μg/mL, 2 hours); 0.910 ×10^6 in series [1] (With Tunicamycin 5 μg/mL, 4 hours); 1.08 ×10^6 in series [1] (With Tunicamycin 5 μg/mL, 25 hours); 0.200 ×10^6 in series [1] (With Tunicamycin 5 μg/mL, 49 hours). Moreover, the “Viable Cells” value is 0.080 ×10^6 in series [1] (With Tunicamycin 5 μg/mL, 73 hours) and 0 ×10^6 in series [1] (With Tunicamycin 5 μg/mL, 91 hours). Also, in series [1] (one hour of treatment, SDS-PAGE mobility shift to approximately 56 kDa in cell pellet fractions), the “Accumulation of deglycosylated human PH20 inside the cell” value is “accumulation of deglycosylated human PH20 hyaluronidase inside the cell”. Also, the “Effect on PH20 activity (in words)” value in series [1] (5 μg/mL) was “inhibits PH20 activity”.

`O=C1N[C@@H]2[C@@H](O)[C@@H](O)[C@H](O)[C@@H](CO)N2C1=O` [Kifunensine]: the PH20 activity was 22.25 U/mL in series [1] (Cell Pellets, With Kifunensine, 0 hours); 21.25 U/mL in series [1] (Cell Pellets, With Kifunensine, 6 hours); 27.75 U/mL in series [1] (Cell Pellets, With Kifunensine, 24 hours); 43 U/mL in series [1] (Cell Pellets, With Kifunensine, 50 hours); 98.75 U/mL in series [1] (Cell Pellets, With Kifunensine, 72 hours); 208.75 U/mL in series [1] (Cell Pellets, With Kifunensine, 96 hours). The PH20 activity in series [1] (Cell Pellets, With Kifunensine, […]) stood at 497.25 U/mL; in series [1] (Tissue Culture Media, With Kifunensine, 0 hours), 0.4 U/mL; in series [1] (Tissue Culture Media, With Kifunensine, 6 hours) it was 23.85 U/mL; in series [1] (Tissue Culture Media, With Kifunensine, 24 hours), 129.6 U/mL; in series [1] (Tissue Culture Media, With Kifunensine, 50 hours), 299.7 U/mL; in series [1] (Tissue Culture Media, With Kifunensine, 72 hours), 535.95 U/mL. The PH20 activity in series [1] (Tissue Culture Media, With Kifunensine, 96 hours) is on record as 945 U/mL; in series [1] (Tissue Culture Media, With Kifunensine, […]) it was 2968.65 U/mL. Further, the “Viable Cells” value was 1 ×10^6 in series [1] (With Kifunensine 5 μg/mL, 0 hours); 1 ×10^6 in series [1] (With Kifunensine 5 μg/mL, 6 hours); 1.2 ×10^6 in series [1] (With Kifunensine 5 μg/mL, 24 hours); 2.1 ×10^6 in series [1] (With Kifunensine 5 μg/mL, 50 hours); 3 ×10^6 in series [1] (With Kifunensine 5 μg/mL, 72 hours); 3.7 ×10^6 in series [1] (With Kifunensine 5 μg/mL, 96 hours). Moreover, in series [1] (With Kifunensine 5 μg/mL, […]), the “Viable Cells” value is reported as 5.8 ×10^6. In addition, the “Effect on PH20 activity (in words)” value in series [1] (5 μg/mL) is “did not affect the activity of PH20”. In addition, the “Effect on expression and secretion of rHuPH20” value in series [1] (western blot analysis, 5 μg/mL) was “inhibited the expression and secretion of rHuPH20”.

B1: VASL + PLC: full length human PH20 (SEQ ID NO: 108) with PLC treatment (protein, listed as Homo sapiens)
chain: LNFRAPPVIPNVPFLWAWNAPSEFCLGKFDEPLDMSLFSFIGSPRINATGQGVTIFYVDRLGYYPYIDSITGVTVNGGIPQKISLQDHLDKAKKDITFYMPVDNLGMAVIDWEEWRPTWARNWKPKDVYKNRSIELVQQQNVQLSLTEATEKAKQEFEKAGKDFLVETIKLGKLLRPNHLWGYYLFPDCYNHHYKKPGYNGSCFNVEIKRNDDLSWLWNESTALYPSIYLNTQQSPVAATLYVRNRVREAIRVSKIPDAKSPLPVFAYTRIVFTDQVLKFLSQDELVYTFGETVALGASGIVIWGTLSIMRSMKSCLLLDNYMETILNPYIINVTLAAKMCSQVLCQEQGVCIRKNWNSSDYLHLNPDNFAIQLEKGGKFTVRGKPTLEDLEQFSEKFYCSCYSTLSCKEKADVKDTDAVDVCIADGVCIDAFLKPPMETEEPQIFYNASPSTLSATMFIVSILFLIISSVASL
modifications: PLC treatment; Mature Human PH20 36-509
On to B1, for which, in series [2], the “pH 5.5 Activity” value turned out to be 2.313 Units/ml and the “pH 7.4 Activity” value came out at 3.96 Units/ml.

B2: SPAM1-AFLK: C-terminally truncated human PH20, precursor 470 aa (SEQ ID NO:30), mature 435 aa (SEQ ID NO:82) (protein, listed as Homo sapiens)
chain: MGVLKFKHIFFRSFVKSSGVSQIVFTFLLIPCCLTLNFRAPPVIPNVPFLWAWNAPSEFCLGKFDEPLDMSLFSFIGSPRINATGQGVTIFYVDRLGYYPYIDSITGVTVNGGIPQKISLQDHLDKAKKDITFYMPVDNLGMAVIDWEEWRPTWARNWKPKDVYKNRSIELVQQQNVQLSLTEATEKAKQEFEKAGKDFLVETIKLGKLLRPNHLWGYYLFPDCYNHHYKKPGYNGSCFNVEIKRNDDLSWLWNESTALYPSIYLNTQQSPVAATLYVRNRVREAIRVSKIPDAKSPLPVFAYTRIVFTDQVLKFLSQDELVYTFGETVALGASGIVIWGTLSIMRSMKSCLLLDNYMETILNPYIINVTLAAKMCSQVLCQEQGVCIRKNWNSSDYLHLNPDNFAIQLEKGGKFTVRGKPTLEDLEQFSEKFYCSCYSTLSCKEKADVKDTDAVDVCIADGVCIDAFLK
modifications: HuPH20 precursor 1-470
Take B2: the “Expressed in Media” value in the series with CHO-S cells is “YES”. In series [2], the “pH 5.5 Activity” value is recorded as 2.925 Units/ml and the “pH 7.4 Activity” value amounted to 3.204 Units/ml.

These data come from patent US9284543B2, “Neutral active soluble truncated PH20 polypeptides and uses thereof” (Halozyme, Inc., priority 2008, dated 2016).
